Key:
COX2 [1] = biological target: T1, COX2 (Homo sapiens, UniProt P35354); assay: S-nitrosylation of COX2 (biotin switch assay) in HEK293T cells transfected with COX2-myc; assay type: cell-based; conditions: for S-nitrosylation of COX2 by NO donors and H2O2: HEK293T cells transfected with COX2-myc, biotin switch, GSNO 100 μM, SNP 100 μM, Spermine-NO 100 μM, DETA-NO 500 μM
T1 construct: myc; expressed in transfected cells; host or cells: HEK293T
T1 sequence (P35354 18-604): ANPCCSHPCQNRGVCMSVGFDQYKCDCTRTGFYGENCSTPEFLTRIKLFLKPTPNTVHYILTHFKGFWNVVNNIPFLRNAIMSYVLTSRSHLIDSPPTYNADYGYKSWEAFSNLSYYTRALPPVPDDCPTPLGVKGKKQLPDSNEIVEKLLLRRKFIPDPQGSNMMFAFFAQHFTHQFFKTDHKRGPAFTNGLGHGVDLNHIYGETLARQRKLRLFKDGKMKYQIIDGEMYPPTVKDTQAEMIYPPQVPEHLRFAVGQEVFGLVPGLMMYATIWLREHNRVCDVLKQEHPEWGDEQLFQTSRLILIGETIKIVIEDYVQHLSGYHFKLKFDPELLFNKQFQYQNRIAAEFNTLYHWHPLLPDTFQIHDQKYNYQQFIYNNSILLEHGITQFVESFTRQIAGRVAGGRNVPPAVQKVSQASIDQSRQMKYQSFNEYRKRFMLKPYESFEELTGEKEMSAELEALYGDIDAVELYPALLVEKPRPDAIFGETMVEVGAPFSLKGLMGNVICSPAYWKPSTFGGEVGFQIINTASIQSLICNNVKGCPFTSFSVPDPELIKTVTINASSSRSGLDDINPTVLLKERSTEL
Excerpt: Plasmid Constructions. Full length human cyclooxygenase2-encoding gene (gene bank sequence NM_000963) was purchased from ATCC in pCMV•SPORT6 vector. The sequence was amplified by PCR using primers harboring Sal1/Not1 restriction sites and cloned into the pCMV-Myc vector (Clontech, Palo Alto, Calif.). The murine inducible nitric oxide synthase (accession number NM_010927) cloned into the pcDNA3.1+vector (Invitrogen, Carlsbad, Calif.).
(§1) S-nitrosylation assay. Cells were homogenized by 26G needle in HEN ([…] Hepes-NaOH pH 7.7, 1 mM EDTA, 0.1 mM Neocuproine) buffer and then centrifuged at 1000 g for 10 min at 4° C. Cells lysates (240 μg) was added 4 vol of blocking buffer (9 vol of HEN buffer plus 1 vol 25% SDS, adjusted to 20 mM MMTS with a 2 M stock prepared in dimethylformamide (DMF)) at 50° C. for 20 min with frequent vortexing. The MMTS was then removed by desalting three times with the MicroBioSpin6 column (Bio-Rad, Hercules, Calif.) pre-equilibrated in HEN buffer. To the eluate was added biotin-HPDP prepared fresh as a 4 mM stock in DMSO from a 50 mM stock suspension in DMF. Sodium ascorbate was added to a final concentration of 1 mM. After incubation for 1 h at 25° C., biotinylated proteins were precipitated by streptavidin-agarose beads. The streptavidin-agarose was then pelleted and washed 5 times using HENS buffer. The biotinylated proteins were eluted by SDS-PAGE sample buffer and subjected to Western-blot analysis.

RAW264.7 cells [2] = assay: PGE2 formation in RAW264.7 cells in response to LPS/IFNγ (PGE2 ELISA); assay type: cell-based, murine; conditions: for PGE2 formation in response to LPS/IFNγ: 1400W various concentrations overnight, L-NAME 500 μM, D-NAME 500 μM
Protocol: Measurement of PGE2. Cells were washed with worm PBS (×2) and incubated in the phenol free Dulbecco's modified Eagle's medium supplemented with 20 μM arachidonic acid and 3% albumin for 20 min. Media was collected and PGE2 production was measured with a PGE2 ELISA kit from Assay Design (Ann Arbor, Mich.) according to the manufacturer's instructions.

COX2 [3] = assay: S-nitrosylation of COX2 in RAW264.7 cells treated with LPS/IFNγ (biotin switch and fluorometric detection); assay type: cell-based, murine; conditions: 1400W 100 μM, fragment transfected
Protocol: as §1
Fluorometric detection of S-nitrosothiols. The methods were modified according to Cook et al.(2) RAW264.7 cells were treated with LPS/IFNγ for overnight and COX2 was immunoprecipitated by donkey anti-rat COX2 antibodies. After that the samples were reacted with 100 μM 2,3-diaminonaphthalene (DAN) in the presence of 100 μM of HgCl2 and incubated in darkness for 30 min at room temperature. The generated fluorescent compound 2,3-napththyltrazole (NAT) was then measured at an excitation wavelength of 375 nm and an emission wavelength of 450 nm.

iNOS and COX2 binding = biological target: T2, iNOS and COX2 binding (Mus musculus, UniProt P29477+Q05769); assay: Co-immunoprecipitation of iNOS and COX2 in LPS/IFNγ-induced RAW264.7 cells; assay type: cell-based, murine
T2 construct: endogenous in cells; host or cells: RAW264.7 murine macrophages induced with LPS/IFNγ

COX2 [4] = biological target: T1, COX2; assay: COX2 enzyme activity in cell lysate of COX2-myc transfected HEK293T cells; assay type: biochemical
Protocol: COX2 enzymatic assay. […] COX2 enzymatic activity was measured with a COX assay kit (Cayman Biochemical Inc, Ann Arbor, Mich.) according to the manufacturer's instructions.
To determine whether S-nitrosylation of COX2 alters enzyme activity, we examined COX2 enzyme activity in HEK293T cells transfected with COX2-myc.

RAW264.7 cells [5] = assay: Confocal immunofluorescence of endogenous PGE2 in RAW264.7 cells transfected with COX2-myc fragments; assay type: cell-based, murine; conditions: RAW264.7 cells activated by LPS/IFNγ
Protocol: Immunohistochemistry. RAW264.7 cells were transfected with deletion constructs of COX2. Cells were fixed in 4% paraformaldehyde in PBS for 5 min, permeablized in 0.1% Triton X-100 for 10 s, and then rinsed twice in PBS. Coverslips were then blocked in 10% goat serum at room temperature for 1 h and incubated with PGE2 (Cayman Biochemical Inc, Ann Arbor, Mich.) and myc antibodies for 24 hr at 4° C. Rhodamine or fluorescein-conjugated secondary antibodies (Jackson Immunochemicals, West Grove, Pa.) were then added at 10 μg/ml for 1 hr at room temperature as indicated. Coverslips were mounted in ProLong (Molecular Probes, Eugene, Oreg.). Confocal microscopy, in which the immunofluorescent staining is superimposed on phase contrast images, employed a Noran OZ (Noran Instruments, Middleton, Wis.) confocal laser-scanning system, fitted to an Olympus IX-50 fluorescence microscope.

N[C@@H](CCC(=O)N[C@@H](CSN=O)C(=O)NCC(=O)O)C(=O)O [GSNO, nitrosoglutathione]
S-nitrosylation of COX2 by NO donors and H2O2 (COX2 [1]): elicit S-nitrosylation

COC(=O)[C@@H](N)CCCNC(=N)N[N+](=O)[O-] [L-NAME, nitro-argininemethylester]
PGE2 formation in response to LPS/IFNγ (RAW264.7 cells [2]; RAW264.7 cells): inhibition of PGE2 formation

NCCCNCCCCN(CCCN)/[N+]([O-])=N/O [spermine-NO]
S-nitrosylation of COX2 by NO donors and H2O2 (COX2 [1]): elicit S-nitrosylation

N=C(N)NCCC[C@H](N)C(=O)O [L-arginine]
Effects of L-NAME on PGE2 formation (RAW264.7 cells [2]; RAW264.7 cells, LPS/IFNγ, L-NAME 500 μM + L-Arg 1 mM): reversed

CC(=N)NCc1cccc(CN)c1 [1400W]
S-nitrosylation of COX2 (COX2 [3]): prevented
Co-precipitation of iNOS and COX2 (iNOS and COX2 binding; RAW264.7 cells induced by LPS/IFNγ, inhibitor 100 μM, immunoprecipitation with anti-iNOS or anti-COX2 antibodies): unaffected
PGE2 formation in response to LPS/IFNγ (RAW264.7 cells [2]; RAW264.7 cells): inhibited

O=C1O[C@H]([C@@H](O)CO)C(O)=C1O [ascorbic acid]
Increase of COX2 activity by SNP (COX2 [4]; SNP 200 μM plus ascorbate 500 μM): prevents the increase
COX2 activity in preparations not treated by SNP (COX2 [4]; ascorbate 500 μM, no SNP): fails to affect
S-nitrosylation of COX2-myc in the presence of SNP (COX2 [1]; SNP 200 μM, ASC 500 μM): reversed

NCCN(CCN)/[N+]([O-])=N/O [DETA-NONOate]
S-nitrosylation of COX2 by NO donors and H2O2 (COX2 [1]): elicit S-nitrosylation

hemoglobin: sequesters freely diffusible NO
S-nitrosylation of COX2 (COX2 [3]): fails to alter

COC(=O)[C@H](N)CCCN=C(N)N[N+](=O)[O-] [D-NAME]
PGE2 formation in response to LPS/IFNγ (RAW264.7 cells [2]; RAW264.7 cells): not

OO [H2O2]
S-nitrosylation of COX2 by NO donors and H2O2 (COX2 [1]): does not elicit S-nitrosylation

B1: 1-483: myc-tagged fragment of COX2 comprising amino acids 1-483, which does not bind iNOS (protein)
chain: ANPCCSHPCQNRGVCMSVGFDQYKCDCTRTGFYGENCSTPEFLTRIKLFLKPTPNTVHYILTHFKGFWNVVNNIPFLRNAIMSYVLTSRSHLIDSPPTYNADYGYKSWEAFSNLSYYTRALPPVPDDCPTPLGVKGKKQLPDSNEIVEKLLLRRKFIPDPQGSNMMFAFFAQHFTHQFFKTDHKRGPAFTNGLGHGVDLNHIYGETLARQRKLRLFKDGKMKYQIIDGEMYPPTVKDTQAEMIYPPQVPEHLRFAVGQEVFGLVPGLMMYATIWLREHNRVCDVLKQEHPEWGDEQLFQTSRLILIGETIKIVIEDYVQHLSGYHFKLKFDPELLFNKQFQYQNRIAAEFNTLYHWHPLLPDTFQIHDQKYNYQQFIYNNSILLEHGITQFVESFTRQIAGRVAGGRNVPPAVQKVSQASIDQSRQMKYQSFNEYRKRFMLKPYESFEELTGEKEMSAELEALYGD
PGE2 expression level in transfected cell compared to non-transfected cell (immunofluorescent staining) (RAW264.7 cells [5]): does not show a reduction
Influence on PGE2 formation (RAW264.7 cells [2]; fragment transfected into RAW264.7 cells, LPS/IFNγ): fails to influence

B2: 484-604: dominant-negative myc-tagged fragment of COX2, amino acids 484-604, which binds iNOS (protein)
chain: IDAVELYPALLVEKPRPDAIFGETMVEVGAPFSLKGLMGNVICSPAYWKPSTFGGEVGFQIINTASIQSLICNNVKGCPFTSFSVPDPELIKTVTINASSSRSGLDDINPTVLLKERSTEL
S-nitrosylation of COX2 (COX2 [3]): decreases
Co-precipitation of iNOS and COX2 (iNOS and COX2 binding; fragment transfected into RAW264.7 cells, LPS/IFNγ, immunoprecipitation with anti-iNOS): abolishes
PGE2 expression level in transfected cell compared to non-transfected cell (immunofluorescent staining) (RAW264.7 cells [5]): reduction
Reduction of PGE2 formation (RAW264.7 cells [2]; dominant-negative fragment transfected into RAW264.7 cells, LPS/IFNγ): more than 50%

From US7358237B2, “Inducible nitric oxide synthase binds, S-nitrosylates, and activates cyclooxygenase-2” (The Johns Hopkins University, priority 2005, dated 2008)
